Assay results: patent publication US9700550B1, “Decreasing expression level of apoptosis-related genes by treating a human subject with a nitroxide” (priority 2016, dated 2017)

Key:
Format in all cases: in vivo
[1] = system: Bak1, Pdcd5, Casp2, Tradd, Trp53inp1 (mouse gene of Tp53inp1), Casp3, or Casp12; test: Serum level of apoptosis pathway genes in a human subject after Tempol treatment; conditions: 1500 mg Tempol per day for 180 days
Procedure: A 70-kilogram human subject is identified for increased expression level of Bak1, Pdcd5, Casp2, Tradd, Trp53inp1 (mouse gene of Tp53inp1), Casp3, or Casp12. The human subject is administered a dose of 1500 mg of Tempol per day for 180 days. This may be administered in a single dose, or may be administered as a number of smaller doses over a 24-hour period: for example, three 500-mg doses at eight-hour intervals. Following treatment, the serum level of Bak1, Pdcd5, Casp2, Tradd, Trp53inp1 (mouse gene of Tp53inp1), Casp3, or Casp12, is reduced.
A 70-kilogram human subject is identified for decreased immune response to a bacterial infection. The human subject is administered a dose of 1500 mg of Tempol per day for 180 days. This may be administered in a single dose, or may be administered as a number of smaller doses over a 24-hour period: for example, three 500-mg doses at eight-hour intervals. Following treatment, the serum level of Bak1, Pdcd5, Casp2, Tradd, Trp53inp1 (mouse gene of Tp53inp1), Casp3, or Casp12, is reduced.
A 70-kilogram human subject is identified as at risk for a psychiatric condition. The human subject is administered a dose of 1500 mg of Tempol per day for 180 days. This may be administered in a single dose, or may be administered as a number of smaller doses over a 24-hour period: for example, three 500-mg doses at eight-hour intervals. Following treatment, the serum level of Bak1, Pdcd5, Casp2, Tradd, Trp53inp1 (mouse gene of Tp53inp1), Casp3, or Casp12, is reduced.
A 70-kilogram human subject is identified as risk for stress-induced apoptosis. The human subject is administered a dose of 1500 mg of Tempol per day for 180 days. This may be administered in a single dose, or may be administered as a number of smaller doses over a 24-hour period: for example, three 500-mg doses at eight-hour intervals. Following treatment, the serum level of Bak1, Pdcd5, Casp2, Tradd, Trp53inp1 (mouse gene of Tp53inp1), Casp3, or Casp12, is reduced.
A 70-kilogram human subject is identified as at risk for a disease associated with an increased level of apoptosis. The human subject is administered a dose of 1500 mg of Tempol per day for 180 days. This may be administered in a single dose, or may be administered as a number of smaller doses over a 24-hour period: for example, three 500-mg doses at eight-hour intervals. Following treatment, the serum level of Bak1, Pdcd5, Casp2, Tradd, Trp53inp1 (mouse gene of Tp53inp1), Casp3, or Casp12, is reduced.
A 70-kilogram human subject is identified as at risk of a disease having an increased expression level of Bak1, Pdcd5, Casp2, Tradd, Trp53inp1 (mouse gene of Tp53inp1), Casp3, or Casp12. The human subject is administered a dose of 1500 mg of Tempol per day for 180 days. This may be administered in a single dose, or may be administered as a number of smaller doses over a 24-hour period: for example, three 500-mg doses at eight-hour intervals. Following treatment, the serum level of Bak1, Pdcd5, Casp2, Tradd, Trp53inp1 (mouse gene of Tp53inp1), Casp3, or Casp12, is reduced.
A 70-kilogram human subject is identified as at risk of Parkinson's disease […]. The human subject is administered a dose of 1500 mg of Tempol per day for 180 days. This may be administered in a single dose, or may be administered as a number of smaller doses over a 24-hour period: for example, three 500-mg doses at eight-hour intervals. Following treatment, the serum level of Bak1, Pdcd5, Casp2, Tradd, Trp53inp1 (mouse gene of Tp53inp1), Casp3, or Casp12, is reduced.

Casp12 = test: Gene expression in cardiac tissue of Tempol-fed mice, chip-based microarray
Procedure: (§1) To assess the effects of Tempol on gene expression, Tempol was administered to experimental mice at a dose of 5 mg/g of food from 14 months to 31 months after birth. Mice receiving the same food without the addition of Tempol were used as a negative control. At the age of 31 months, the experimental animals were sacrificed and the hearts were surgically removed. The expression of a broad spectrum of genes in the cardiac tissue was assessed using chip-based microarray technology. Such chips are well known in the art and are widely used to assess gene expression.

Pdcd5 = test: as above
Procedure: as §1

Bak1 = test: as above
Procedure: as §1

[2] = system: Trp53inp1 (mouse gene of Tp53inp1); test: as above
Procedure: as §1

Casp2 = test: as above
Procedure: as §1

Casp3 = test: as above
Procedure: as §1

Tradd = test: as above
Procedure: as §1

[3] = Tempol 5 mg/g of food vs control mice
[4] = Tempol-treated vs control mice, P-value 0.03
[5] = Tempol-treated vs control mice, P-value 0.01
[6] = Tempol-treated vs control mice, P-value 0.00

Structure (SMILES): CC1(C)CC(O)CC(C)(C)N1[O] [Tempol, 4-hydroxy-2,2,6,6-tetramethylpiperidine-1-oxyl]
- serum level of Bak1, Pdcd5, Casp2, Tradd, Trp53inp1, Casp3, or Casp12 following treatment ([1]; Example 2: 70-kilogram human subject with increased expression level of the gene): reduced
- serum level of Bak1, Pdcd5, Casp2, Tradd, Trp53inp1, Casp3, or Casp12 following treatment ([1]; Example 3: 70-kilogram human subject with decreased immune response to a bacterial infection): reduced
- serum level of Bak1, Pdcd5, Casp2, Tradd, Trp53inp1, Casp3, or Casp12 following treatment ([1]; Example 4: 70-kilogram human subject at risk for a psychiatric condition): reduced
- serum level of Bak1, Pdcd5, Casp2, Tradd, Trp53inp1, Casp3, or Casp12 following treatment ([1]; Example 5: 70-kilogram human subject at risk for stress-induced apoptosis): reduced
- serum level of Bak1, Pdcd5, Casp2, Tradd, Trp53inp1, Casp3, or Casp12 following treatment ([1]; Example 6: 70-kilogram human subject at risk for a disease associated with an increased level of apoptosis): reduced
- serum level of Bak1, Pdcd5, Casp2, Tradd, Trp53inp1, Casp3, or Casp12 following treatment ([1]; Example 7: 70-kilogram human subject at risk of a disease having an increased expression level of the gene): reduced
- serum level of Bak1, Pdcd5, Casp2, Tradd, Trp53inp1, Casp3, or Casp12 following treatment ([1]; Example 8: 70-kilogram human subject at risk of Parkinson's disease): reduced
- Casp12 expression change, in words (Casp12; [3]): statistically significant decrease in expression
- Casp12 fold change (Casp12; Tempol-treated vs control mice, P-value 0.02): −1.61
- Casp12 expression, Tempol-treated mice (Casp12; age 31 months, Tempol 5 mg/g of food from 14 to 31 months, control mice 701): 436
- Pdcd5 expression change, in words (Pdcd5; [3]): statistically significant decrease in expression
- Pdcd5 fold change (Pdcd5; [4]): −1.15
- Pdcd5 expression, Tempol-treated mice (Pdcd5; age 31 months, Tempol 5 mg/g of food from 14 to 31 months, control mice 2863): 2503
- Bak1 expression change, in words (Bak1; [3]): statistically significant decrease in expression
- Bak1 fold change (Bak1; [5]): −1.15
- Bak1 expression, Tempol-treated mice (Bak1; age 31 months, Tempol 5 mg/g of food from 14 to 31 months, control mice 260): 226
- Trp53inp1 expression change, in words [2, 3]: statistically significant decrease in expression
- Trp53inp1 fold change [2, 6]: −1.33
- Trp53inp1 expression, Tempol-treated mice ([2]; age 31 months, Tempol 5 mg/g of food from 14 to 31 months, control mice 1107): 830
- Casp2 expression change, in words (Casp2; [3]): statistically significant decrease in expression
- Casp2 fold change (Casp2; [4]): −1.20
- Casp2 expression, Tempol-treated mice (Casp2; age 31 months, Tempol 5 mg/g of food from 14 to 31 months, control mice 316): 261
- Casp3 expression change, in words (Casp3; [3]): statistically significant decrease in expression
- Casp3 fold change (Casp3; [6]): −1.47
- Casp3 expression, Tempol-treated mice (Casp3; age 31 months, Tempol 5 mg/g of food from 14 to 31 months, control mice 604): 414
- Tradd expression change, in words (Tradd; [3]): statistically significant decrease in expression
- Tradd fold change (Tradd; [5]): −1.23
- Tradd expression, Tempol-treated mice (Tradd; age 31 months, Tempol 5 mg/g of food from 14 to 31 months, control mice 288): 233
